Measured values: US8211462B2, “Hot-melt TTS for administering rotigotine” (UCB Pharma GmbH, priority 2002, dated 2012)

Columns and labels:
[1] = Active-substance stability: rotigotine purity in the cement matrix by gradient HPLC; assay type: physicochemical; details: hot-melt processing
Experimental: The cement matrix was mixed with 0.1% methane sulfonic acid, agitated, centrifuged and measured. (b3) Analytics of the Active-Substance Stability: […] Column: LiChrosphere 100 CN, 125 mm×4.6 mm, 5 μm. Flow rate: 1.0 mL, column temperature: 40° C. UV detection (2 wavelengths: 272 and 220 nm).

[2] = Solubility of rotigotine in hydrophobic adhesives; assay type: physicochemical

remains stable under short-term heating to temperatures up to [1]: at least 160 °C
solubility of rotigotine in hydrophobic adhesives such as silicones [2]: soluble in trace amounts only
Structure (SMILES): CCCN(CCc1cccs1)[C@H]1CCc2c(O)cccc2C1 [rotigotine, (−)-5,6,7,8-tetrahydro-6-[propyl[2-(2-thienyl)ethyl-)amino]-1-naphthol]
